Patent publication US20180353501A1 (Arvinas, Inc., priority 2017, published 2018)

Assays:
FLAG-p38α = target: T1, FLAG-p38α (Homo sapiens, UniProt Q16539); assay: Ubiquitination assay, HeLa cells co-transfected with HA-Ub and FLAG-p38α; format: cell-based; settings: 500 nM, 1 hour
T1 construct: expressed in transfected cells; host or cells: HeLa
Protocol: FIGS. 14A, 14B, and 14C. p38α selectivity is discriminated by ternary complex formation. (A) Only p38α incubated in the presence of exemplary compound 50 can be immunoprecipitated with GST-tagged VHL/EloB/EloC (VBC). Immobilized VBC was used as a bait to trap purified p38α in the presence of vehicle (DMSO), compound 50, or compound 46 (represented in micromolar concentrations). The rightmost lane represents a 1:25 dilution of initial input protein used in each pull-down. (B) Proximity-based AlphaLISA assay detects significant p38α:compound 50:VHL ternary complex, but no p38α:compound 46:VHL ternary complex. His-p38α and GST-VBC were incubated in the presence of increasing concentrations of compound 50 and compound 46 and the extent of ternary complex formation was assessed by excitation with incident light with 1=680 nm and capture of the emission light at 1=615 nm. Error bars represent the SD from quadruplicate experiments. (C) Only exemplary compound 50 ubiquitinates FLAG-p38α in HeLa cells. […] FLAGimmunoprecipitated lysates were separated by SDS-PAGE and assessed via western blots detecting HA (Ub). […]
HeLa cells (2×10^6) were seeded into 10 cm dishes and allowed to adhere overnight. […] Lysates were spun down at 14,000×g at 4° C. for 20 minutes and protein content was measured by Pierce BCA Protein Assay (ThermoFisher Scientific). […]

cMET = target: T2, cMET (Homo sapiens, UniProt P08581); assay: Cellular assay of target protein degradation (MDA-MB-231 cells, ELISA); format: cell-based
T2 construct: endogenous in cells; host or cells: MDA-MB-231
T2 sequence (P08581 25-1390): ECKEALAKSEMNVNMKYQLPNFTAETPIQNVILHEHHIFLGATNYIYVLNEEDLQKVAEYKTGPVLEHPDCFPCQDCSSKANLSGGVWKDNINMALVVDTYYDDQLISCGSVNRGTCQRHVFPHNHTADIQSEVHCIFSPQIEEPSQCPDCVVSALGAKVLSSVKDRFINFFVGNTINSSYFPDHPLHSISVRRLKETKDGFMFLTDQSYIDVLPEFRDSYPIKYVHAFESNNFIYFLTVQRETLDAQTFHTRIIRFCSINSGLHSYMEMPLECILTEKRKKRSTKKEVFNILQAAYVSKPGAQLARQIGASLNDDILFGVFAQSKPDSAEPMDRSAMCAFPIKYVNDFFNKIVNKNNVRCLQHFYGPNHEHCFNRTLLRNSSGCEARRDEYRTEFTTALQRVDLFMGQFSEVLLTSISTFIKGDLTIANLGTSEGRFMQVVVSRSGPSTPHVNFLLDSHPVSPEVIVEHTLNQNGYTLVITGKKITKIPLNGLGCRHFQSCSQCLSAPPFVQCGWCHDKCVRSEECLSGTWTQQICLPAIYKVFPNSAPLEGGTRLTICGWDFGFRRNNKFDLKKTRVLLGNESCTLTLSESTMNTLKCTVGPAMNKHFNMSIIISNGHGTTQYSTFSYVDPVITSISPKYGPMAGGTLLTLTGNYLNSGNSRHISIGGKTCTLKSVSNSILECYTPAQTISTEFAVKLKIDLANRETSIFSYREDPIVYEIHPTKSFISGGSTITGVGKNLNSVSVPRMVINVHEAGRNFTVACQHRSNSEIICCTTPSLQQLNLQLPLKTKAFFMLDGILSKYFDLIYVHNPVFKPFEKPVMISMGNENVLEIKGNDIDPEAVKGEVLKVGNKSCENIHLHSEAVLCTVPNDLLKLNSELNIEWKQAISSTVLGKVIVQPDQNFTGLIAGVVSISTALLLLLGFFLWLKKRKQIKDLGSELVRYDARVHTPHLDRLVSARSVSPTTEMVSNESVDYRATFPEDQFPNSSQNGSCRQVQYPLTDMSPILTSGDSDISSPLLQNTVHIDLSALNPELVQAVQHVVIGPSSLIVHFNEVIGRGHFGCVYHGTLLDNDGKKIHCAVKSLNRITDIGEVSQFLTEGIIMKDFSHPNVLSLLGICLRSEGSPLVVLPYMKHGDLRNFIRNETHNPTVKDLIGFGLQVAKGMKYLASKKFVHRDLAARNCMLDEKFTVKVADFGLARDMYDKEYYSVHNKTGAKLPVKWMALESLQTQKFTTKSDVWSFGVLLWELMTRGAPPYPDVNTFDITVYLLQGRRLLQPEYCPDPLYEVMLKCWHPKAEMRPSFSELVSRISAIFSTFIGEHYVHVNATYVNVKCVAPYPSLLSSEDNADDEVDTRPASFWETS
Protocol: Protocol of the cellular assay of target protein degradation (MDA-MB-231 cells, ELISA).
For detection Cell Signaling PathScan Sandwich ELISA Catalog#12850 was used. MDA-MB-231 cells and […] were cultured in ATCC DMEM+ATCC FBS and plated 40,000/well 100 μl/well in RPMI P/S with 5% CSS Omega (bovine) serum into a 96 well plate. The cells were grown for a minimum of 3 days, dosed with compounds in 0.1% DMSO (diluted with 5% CSS) and incubated with aspiration for 4 hours. 100 μl of 1× Cell Signaling lysis buffer #9803 (36 mL dH2O+4 mL Cell Signaling lysis buffer) was added. The incubation was placed on cold room shaker for 10 minutes at speed 8-9.5 μl to 100 μL of Diluent was transferred to ELISA plate (0.15 μg/mL-0.075 μg/mL) and stored at 4° C. overnight on cold room shaker speed 5 (gentle swirl) and then shaken next morning at 37° C. for 30 minutes. The preparation was washed 4×200 μl with ELISA wash buffer and aspirated with eight-channel aspirator. 100 μl/well of target protein detection antibody was added after, which the preparation was covered and shaken at 37° C. for 1 hour. 100 μl TMB was added, and the mixture was shaken for 5 min while under observation. When TMB turned light blue, 100 μl of Stop solution was added, and the mixture was shaken and read at 450 nm. Also read at 562 nm for background subtraction.

T1 sequence (Q16539 whole entry): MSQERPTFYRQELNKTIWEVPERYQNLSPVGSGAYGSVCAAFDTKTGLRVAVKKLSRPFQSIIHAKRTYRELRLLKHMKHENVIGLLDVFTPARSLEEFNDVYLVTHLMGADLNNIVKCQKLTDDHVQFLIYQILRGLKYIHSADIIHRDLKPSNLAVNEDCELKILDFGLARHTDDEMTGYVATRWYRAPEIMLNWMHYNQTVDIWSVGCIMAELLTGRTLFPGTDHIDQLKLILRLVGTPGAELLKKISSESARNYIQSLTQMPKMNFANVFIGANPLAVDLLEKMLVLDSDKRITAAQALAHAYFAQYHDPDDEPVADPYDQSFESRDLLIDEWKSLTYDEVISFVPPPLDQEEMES

Row | SMILES | ubiquitination of FLAG-p38α (FLAG-p38α) | c-Met protein degradation (dose response) (cMET; ELISA) | DC50 (cMET) [nM] | Dmax (cMET) [%]
1 | COc1cc2c(Oc3ccc(NC(=O)C4(C(=O)Nc5ccc(F)cc5)CC4)cc3F)ccnc2cc1OCCOCCOCCOc1cc(-c2scnc2C)ccc1CNC(=O)[C@@H]1C[C@@H](O)CN1C(=O)[C@H](C(C)C)N1Cc2ccccc2C1=O [compound 46] | this effect was not seen |  |  | 
2 | COc1cc2c(Oc3ccc(NC(=O)C4(C(=O)Nc5ccc(F)cc5)CC4)cc3F)ccnc2cc1OCCCOCCCOCCC(=O)N[C@H](C(=O)N1C[C@H](O)C[C@H]1C(=O)NCc1ccc(-c2scnc2C)cc1)C(C)(C)C [Example 1] |  | significant targeted degradation |  | 
3 | COc1cc2c(Oc3ccc(NC(=O)C4(C(=O)Nc5ccc(F)cc5)CC4)cc3F)ccnc2cc1OCCCCOCCCCOCC(=O)N[C@H](C(=O)N1C[C@H](O)C[C@H]1C(=O)NCc1ccc(-c2scnc2C)cc1)C(C)(C)C [compound 50, N-(3-fluoro-4-((7-(4-(4-(2-(((S)-1-((2S,4R)-4-hydroxy-2-((4-(4-methylthiazol-5-yl)benzyl)carbamoyl)pyrrolidin-1-yl)-3,3-dimethyl-1-oxobutan-2-yl)amino)-2-oxoethoxy)butoxy)buto-xy)-6-methoxyquinolin-4-yl)oxy)phenyl)-N-(4-fluorophenyl)cyclopropane-1,1-dicarboxa-mide] | substantial ubiquitination |  | 36 | 88
